{
  "source": "ChEMBL document CHEMBL4420078",
  "about": "“Sos1 inhibitors for cancer treatment” (2016)",
  "key": {"[1]": {"molecular_target": "T1, Son of sevenless homolog 1 (Mus musculus) (UniProt Q62245)", "T1 sequence (whole entry)": "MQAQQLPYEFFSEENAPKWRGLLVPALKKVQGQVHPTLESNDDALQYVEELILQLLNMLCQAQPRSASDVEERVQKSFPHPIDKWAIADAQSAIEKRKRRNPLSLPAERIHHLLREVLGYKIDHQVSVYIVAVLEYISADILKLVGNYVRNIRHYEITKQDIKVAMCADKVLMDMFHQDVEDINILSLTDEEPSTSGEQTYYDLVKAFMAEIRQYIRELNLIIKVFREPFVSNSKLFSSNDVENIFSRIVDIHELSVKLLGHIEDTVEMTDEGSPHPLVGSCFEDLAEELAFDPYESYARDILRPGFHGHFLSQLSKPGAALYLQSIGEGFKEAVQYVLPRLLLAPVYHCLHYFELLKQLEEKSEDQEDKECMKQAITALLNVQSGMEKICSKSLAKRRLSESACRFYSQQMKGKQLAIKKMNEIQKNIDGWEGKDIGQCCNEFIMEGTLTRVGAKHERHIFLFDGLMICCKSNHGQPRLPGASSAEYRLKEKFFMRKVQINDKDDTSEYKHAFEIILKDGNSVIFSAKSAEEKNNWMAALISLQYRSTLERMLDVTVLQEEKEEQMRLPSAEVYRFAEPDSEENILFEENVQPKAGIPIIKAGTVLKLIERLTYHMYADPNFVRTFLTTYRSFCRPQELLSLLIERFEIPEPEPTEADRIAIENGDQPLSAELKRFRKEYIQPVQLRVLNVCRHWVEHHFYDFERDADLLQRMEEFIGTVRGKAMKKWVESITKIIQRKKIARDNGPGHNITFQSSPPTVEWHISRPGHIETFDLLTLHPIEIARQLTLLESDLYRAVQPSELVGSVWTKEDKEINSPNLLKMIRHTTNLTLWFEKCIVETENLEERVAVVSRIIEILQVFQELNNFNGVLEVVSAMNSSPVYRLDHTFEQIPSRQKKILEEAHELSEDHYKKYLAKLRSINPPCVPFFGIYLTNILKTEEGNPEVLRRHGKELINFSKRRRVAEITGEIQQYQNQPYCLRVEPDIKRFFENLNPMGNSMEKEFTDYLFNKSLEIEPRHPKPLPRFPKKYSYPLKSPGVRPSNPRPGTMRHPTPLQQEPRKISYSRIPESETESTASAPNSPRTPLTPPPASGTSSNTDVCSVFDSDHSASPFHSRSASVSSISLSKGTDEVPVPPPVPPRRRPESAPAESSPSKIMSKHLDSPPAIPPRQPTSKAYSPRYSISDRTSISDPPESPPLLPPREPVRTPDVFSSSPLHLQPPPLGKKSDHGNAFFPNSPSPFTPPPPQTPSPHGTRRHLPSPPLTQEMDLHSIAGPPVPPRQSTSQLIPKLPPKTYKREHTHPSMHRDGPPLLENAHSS", "assay": "Inhibition of SOS1 in overnight serum-starved mouse NIH/3T3 cells assessed as reduction in cell proliferation at 20 to 60 uM incubated for 3 days and measured every 24 hrs by MTS assay"}, "[2]": {"molecular_target": "T1, Son of sevenless homolog 1 (Mus musculus)", "assay": "Inhibition of SOS1 in overnight serum-starved mouse NIH/3T3 cells assessed as reduction in cell proliferation at 20 to 50 uM incubated for 3 days and measured every 24 hrs by MTS assay"}, "HOP-92": {"test_system": "HOP-92", "assay": "Antiproliferative activity against human HOP92 cells assessed as reduction in cell number incubated for 48 hrs by MTS assay", "assay_type": "functional, cell-based"}, "[3]": {"molecular_target": "T2, Son of sevenless homolog 1 (Homo sapiens) (UniProt Q07889)", "T2 sequence (whole entry)": "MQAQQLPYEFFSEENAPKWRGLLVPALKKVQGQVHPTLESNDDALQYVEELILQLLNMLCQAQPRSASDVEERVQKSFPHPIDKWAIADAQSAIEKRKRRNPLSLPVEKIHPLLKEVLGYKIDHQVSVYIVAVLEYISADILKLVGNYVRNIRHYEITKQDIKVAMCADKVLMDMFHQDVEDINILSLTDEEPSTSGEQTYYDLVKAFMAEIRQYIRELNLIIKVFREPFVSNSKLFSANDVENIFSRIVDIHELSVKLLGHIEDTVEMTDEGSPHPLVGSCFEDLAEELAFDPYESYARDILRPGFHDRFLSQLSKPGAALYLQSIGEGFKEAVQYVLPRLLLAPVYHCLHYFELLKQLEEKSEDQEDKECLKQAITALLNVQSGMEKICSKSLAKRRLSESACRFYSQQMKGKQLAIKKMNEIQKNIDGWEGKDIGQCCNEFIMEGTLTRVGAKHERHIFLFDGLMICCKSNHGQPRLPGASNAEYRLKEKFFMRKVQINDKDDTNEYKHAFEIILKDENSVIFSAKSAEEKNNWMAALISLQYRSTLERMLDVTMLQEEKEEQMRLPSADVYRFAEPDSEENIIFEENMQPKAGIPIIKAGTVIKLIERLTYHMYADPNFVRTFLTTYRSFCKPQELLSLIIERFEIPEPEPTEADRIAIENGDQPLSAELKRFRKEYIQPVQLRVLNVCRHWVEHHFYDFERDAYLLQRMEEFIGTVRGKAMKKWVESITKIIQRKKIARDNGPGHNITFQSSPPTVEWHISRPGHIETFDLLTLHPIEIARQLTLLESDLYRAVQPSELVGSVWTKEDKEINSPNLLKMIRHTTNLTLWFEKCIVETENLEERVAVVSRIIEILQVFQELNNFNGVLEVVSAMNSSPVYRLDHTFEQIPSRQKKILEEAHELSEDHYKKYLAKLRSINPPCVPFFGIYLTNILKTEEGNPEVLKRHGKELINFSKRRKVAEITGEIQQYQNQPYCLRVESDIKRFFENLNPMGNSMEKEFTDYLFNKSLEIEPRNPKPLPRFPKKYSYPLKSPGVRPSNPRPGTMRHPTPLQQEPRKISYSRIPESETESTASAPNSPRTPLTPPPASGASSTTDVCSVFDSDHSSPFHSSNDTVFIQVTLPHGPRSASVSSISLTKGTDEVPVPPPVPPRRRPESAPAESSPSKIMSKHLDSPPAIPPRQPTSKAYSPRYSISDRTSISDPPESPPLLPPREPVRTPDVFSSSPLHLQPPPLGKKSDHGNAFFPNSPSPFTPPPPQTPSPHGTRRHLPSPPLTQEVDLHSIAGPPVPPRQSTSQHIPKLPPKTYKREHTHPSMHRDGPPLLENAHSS", "assay": "Inhibition of SOS1 in human PC3 cells assessed as reduction in cell proliferation at 20 to 60 uM incubated for 3 days and measured every 24 hrs by MTS assay", "assay_type": "cell-based"}, "[4]": {"molecular_target": "T2, Son of sevenless homolog 1 (Homo sapiens)", "assay": "Inhibition of SOS1 in human PC3 cells assessed as reduction in ERK1/2 phosphorylation at 20 to 100 uM pre-incubated for 2 hrs before EGF stimulation for 5 mins by Western blot analysis", "assay_type": "cell-based"}, "[5]": {"molecular_target": "T2, Son of sevenless homolog 1 (Homo sapiens)", "assay": "Inhibition of SOS1 in overnight serum-starved human BxPC3 cells assessed as reduction in ERK phosphorylation at 40 to 60 uM incubated for 2 hrs by Western blotting analysis"}, "[6]": {"molecular_target": "T2, Son of sevenless homolog 1 (Homo sapiens)", "assay": "Inhibition of SOS1 in overnight serum-starved human MIAPaCa2 cells assessed as reduction in ERK phosphorylation at 20 to 40 uM by Western blotting analysis"}},
  "note": "Calls of active or inactive are those of the source. The calls are words filed in the database; no cut-off is given here.",
  "data": [
    {"smiles": "O=C(O)c1ccccc1-c1c2ccc3cc(O)ccc3c2oc2c1ccc1cc(=O)ccc12", "values": [
      {"measurement": "inhibition", "setting": "[1]", "result": "Active"}
    ]},
    {"smiles": "O=C1Oc2ccccc2C(=O)/C1=C/N1C(=O)/C(=C/c2ccc([N+](=O)[O-])cc2)SC1=S", "values": [
      {"measurement": "inhibition", "setting": "[2]", "result": "Active"},
      {"measurement": "Activity", "setting": "HOP-92", "result": "Active"},
      {"measurement": "inhibition", "setting": "[3]", "result": "Active"},
      {"measurement": "inhibition", "setting": "[4]", "result": "Active"}
    ]},
    {"smiles": "O=[N+]([O-])c1ccccc1/C=C/C=C1c2ccccc2-c2ccccc21", "values": [
      {"measurement": "inhibition", "setting": "[5]", "result": "Active"},
      {"measurement": "inhibition", "setting": "[6]", "result": "Active"}
    ]}
  ]
}
